Measured values: patent US11702402B2, “Small molecules that block proteasome-associated ubiquitin receptor RPN13 function and uses thereof” (DANA-FARBER CANCER INSTITUTE, INC., priority 2018, dated 2023)

Assays:
[1] = test system: HCT116 and HCT116-Rpn13KO cell lines; experiment: HCT116 and HCT116-Rpn13KO cell viability; format: cell-based; conditions: HCT116 versus HCT116-Rpn13KO; 48 hours; Wst-1
Protocol: FIGS. 8A and 8B show HCT116 and HCT116-Rpn13KO cell lines that were treated with WL40 or WL44 at the indicated concentrations for 48 hours. Wst-1 assay was used to test cell viability.
CRISPR-Cas9 genome editing was performed to generate Rpn13-knockout (Rpn13-KO) HCT116 and MM.1S cell lines. Cells were transfected with Rpn13-CRISPR/Cas9-knockout (KO) plasmid (Santa Cruz Biotechnology, Inc., Santa Cruz, Calif., USA) using Lipofectamine 2000 (Thermo Fisher Scientific, Waltham, Mass., USA) or the cell line Nucleofector Kit V (Amaxa Biosystems, Cologne, Germany), respectively. After 48 h incubation, green fluorescent protein (GFP)-positive cells were sorted. Rpn13 KO was confirmed by both protein expression studies and DNA sequencing.

MM.1S cells = experiment: Annexin V/PI apoptosis assay in MM.1S cells; format: cell-based, Human; conditions: 200 nM, 16 hours
Protocol: FIGS. 22A to 22F show the mechanisms of WL40-induced MM cell death. […] MM.1S cells were treated with DMSO control or WL40 (200 nM) for 16 hours, and then analyzed for apoptosis using Annexin V/PI double staining assay (mean±SD; n=3; p<0.001). FIG. 22B is an immunoblot of MM.1S and ANBL6.BR cells, which were treated with DMSO control or WL40 (200 nM for MM.1S; 1 μM for ANBL6.BR) for 16 hours; protein lysates were then subjected to the immunoblotting using antibodies against poly ADP ribose polymerase (PARP), caspase-3, caspase-7, caspase-8, caspase-9, or β-actin. FL, full length; CF, cleaved fragment. FIG. 22C is a bar graph measuring enzymatic activity. MM.1S cells were treated with DMSO control or WL40 (200 nM) for 12 hours, followed by the measurement of caspase-3, caspase-8, or caspase-9 enzymatic activity (mean±SD; n=3; p<0.0001). FIG. 22D is an immunoblot of MM.1S and ANBL6.BR cells, which were treated with DMSO control or WL40 (200 nM for MM.1S; 1 μM for ANBL6.BR) for 16 hours; protein lysates were then subjected to the immunoblotting using specific antibodies against Cyclin-B1, Cell Division Cycle 25C (CDC25C), Cell Division Cycle 2 (CDCl2), or β-actin. […]

RPN13 = RPN13 (Homo sapiens, UniProt Q16186); experiment: Rpn13 immunoblot in MM.1S-CRBN KO cells; format: cell-based; design: endogenous in cells; host or cells: MM.1S; MM.1S-CRBN KO; RPMI-8226; ANBL6.BR; conditions: 400 nM, 16 hours, versus DMSO
Protocol: FIGS. 19A-19I show the exemplary design and characterization of exemplary Rpn13 degrader WL40. […] WL40 was created by linking the Rpn13 inhibitor RA190 to the IMiD thalidomide as a ligand for the CRBN E3 ligase via a PEG linker. […] FIG. 19C is a schematic cartoon for the novel AlphaScreen assay to measure the binding activity of inhibitor with RPN13 proteins. […] FIG. 19E depicts immunoblot analysis of multiple myeloma 1S (MM.1S) cells, which were treated with WL40 or RA190 at the indicated concentrations and time periods; protein lysates were subjected to the immunoblot analysis using anti-Rpn13 or anti-tubulin Abs. FIG. 19F depicts flow cytometry analysis of MM.1S cells, which were treated with DMSO control, WL40 (400 nM), or RA190 (500 nM) for 16 hours; cells were then washed and stained with Rpn13 Ab conjugated with AlexaFluor-647, followed by the flow cytometry analysis. Isotype Ab conjugated to AlexaFluor-647 was used as control for non-specific binding. Data was quantified using FACS Diva (BD Biosciences, USA) and FlowJo (FlowJo LLC, USA). […]
To confirm that CRBN presence is a prerequisite for the function of WL40 in cells, CRBN-knockout (KO) MM.1S cells^27, 38 were utilized, and the effect of WL40 on Rpn13 degradation was examined. […] GFPu-1 cells were treated with WL40, and GFP levels were then analyzed using immunoblotting. […]

RPN13, sequence (Q16186 whole entry): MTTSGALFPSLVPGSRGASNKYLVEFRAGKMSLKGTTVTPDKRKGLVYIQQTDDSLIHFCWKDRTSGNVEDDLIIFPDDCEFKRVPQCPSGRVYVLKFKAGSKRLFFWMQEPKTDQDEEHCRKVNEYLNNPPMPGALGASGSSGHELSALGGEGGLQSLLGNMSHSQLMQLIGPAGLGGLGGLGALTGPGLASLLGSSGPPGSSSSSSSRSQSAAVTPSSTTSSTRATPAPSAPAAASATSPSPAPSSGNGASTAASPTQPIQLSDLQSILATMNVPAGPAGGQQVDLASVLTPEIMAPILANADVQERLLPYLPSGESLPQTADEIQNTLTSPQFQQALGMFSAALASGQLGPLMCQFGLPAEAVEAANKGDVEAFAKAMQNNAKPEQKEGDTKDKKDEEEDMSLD

SMILES: O=C1CCC(N2C(=O)c3cccc(NCCOCCOCCOCCC(=O)N[C@@H](Cc4ccccc4)C(=O)N4C/C(=C\c5ccc(Cl)c(Cl)c5)C(=O)/C(=C/c5ccc(Cl)c(Cl)c5)C4)c3C2=O)C(=O)N1 (stereo partly drawn) [WL40]
- RPN13 dependence of cytotoxicity [1]: RPN13-dependent
- apoptosis (Annexin V/PI) (MM.1S cells): increase in early- (Annexin V^+/PI^−) and late-stage (Annexin V^+/PI^+) apoptosis
- Rpn13 levels (immunoblot) (RPN13): no decrease in Rpn13 levels
